Measured values reported in ChEMBL document CHEMBL3132769, “Fragment growing to retain or alter the selectivity of anchored kinase hinge-binding fragments” (Medchemcomm, 2014).

Legend:
[1] = molecular target: T1, cGMP-dependent protein kinase 1 (Homo sapiens) (UniProt Q13976); assay: Inhibition of human full length PKG-1a expressed in baculovirus assessed as substrate phosphorylation using fluorescence-labelled peptides as substrate at 0.06 uM after 90 mins by microfluidic peptide phosphorylation assay
T1 sequence (whole entry): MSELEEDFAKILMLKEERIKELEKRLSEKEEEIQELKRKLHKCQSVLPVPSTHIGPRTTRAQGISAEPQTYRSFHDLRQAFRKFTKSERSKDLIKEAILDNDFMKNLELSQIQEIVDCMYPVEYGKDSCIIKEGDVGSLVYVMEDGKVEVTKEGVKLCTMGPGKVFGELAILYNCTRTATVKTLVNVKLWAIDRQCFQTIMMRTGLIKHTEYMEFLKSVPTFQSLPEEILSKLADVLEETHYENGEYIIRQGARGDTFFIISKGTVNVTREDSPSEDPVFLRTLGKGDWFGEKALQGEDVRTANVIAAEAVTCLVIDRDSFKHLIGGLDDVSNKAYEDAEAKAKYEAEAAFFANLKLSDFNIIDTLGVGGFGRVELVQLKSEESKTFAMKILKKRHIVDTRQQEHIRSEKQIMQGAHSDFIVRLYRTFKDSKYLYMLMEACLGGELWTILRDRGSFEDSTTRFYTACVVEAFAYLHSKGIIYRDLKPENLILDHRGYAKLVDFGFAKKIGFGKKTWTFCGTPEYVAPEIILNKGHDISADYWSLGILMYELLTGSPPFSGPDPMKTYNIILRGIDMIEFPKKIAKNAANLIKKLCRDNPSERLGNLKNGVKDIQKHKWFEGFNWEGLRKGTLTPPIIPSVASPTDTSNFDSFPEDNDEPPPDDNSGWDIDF

[2] = molecular target: T2, Aurora kinase C (Homo sapiens) (UniProt Q9UQB9); assay: Inhibition of human full length AurC expressed in baculovirus assessed as substrate phosphorylation using fluorescence-labelled peptides as substrate at 0.2 uM after 90 mins by microfluidic peptide phosphorylation assay
T2 sequence (whole entry): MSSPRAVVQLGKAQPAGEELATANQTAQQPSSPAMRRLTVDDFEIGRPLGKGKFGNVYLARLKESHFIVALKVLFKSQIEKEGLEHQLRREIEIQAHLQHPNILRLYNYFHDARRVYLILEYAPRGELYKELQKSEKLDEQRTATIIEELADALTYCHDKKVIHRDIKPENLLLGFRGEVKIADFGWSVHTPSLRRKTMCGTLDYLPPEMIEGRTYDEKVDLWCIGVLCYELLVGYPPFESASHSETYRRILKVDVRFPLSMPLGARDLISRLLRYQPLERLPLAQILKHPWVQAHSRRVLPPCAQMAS

[3] = molecular target: Glycogen synthase kinase-3 beta (Homo sapiens) (UniProt P49841); assay: Inhibition of human full length GSK-3 beta expressed in baculovirus assessed as substrate phosphorylation using fluorescence-labelled peptides as substrate at 0.2 uM after 90 mins by microfluidic peptide phosphorylation assay
Sequence of Glycogen synthase kinase-3 beta (Homo sapiens) (P49841 whole entry, looked up): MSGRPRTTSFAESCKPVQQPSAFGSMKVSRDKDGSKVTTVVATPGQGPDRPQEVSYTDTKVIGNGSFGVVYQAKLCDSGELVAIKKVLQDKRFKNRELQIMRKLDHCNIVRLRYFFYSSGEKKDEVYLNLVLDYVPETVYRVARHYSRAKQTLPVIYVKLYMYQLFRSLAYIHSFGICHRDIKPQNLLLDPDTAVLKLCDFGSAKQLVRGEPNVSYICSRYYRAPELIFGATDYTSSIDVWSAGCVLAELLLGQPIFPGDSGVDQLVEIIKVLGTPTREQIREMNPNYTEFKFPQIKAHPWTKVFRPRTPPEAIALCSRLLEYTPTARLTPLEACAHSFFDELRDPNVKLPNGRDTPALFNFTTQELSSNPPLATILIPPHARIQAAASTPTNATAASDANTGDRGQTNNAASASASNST

[4] = molecular target: T3, Mitogen-activated protein kinase 13 (Homo sapiens) (UniProt O15264); assay: Inhibition of human full length p38 delta expressed in Escherichia coli cell assessed as substrate phosphorylation using fluorescence-labelled peptides as substrate at 0.2 uM after 90 mins by microfluidic peptide phosphorylation assay
T3 sequence (whole entry): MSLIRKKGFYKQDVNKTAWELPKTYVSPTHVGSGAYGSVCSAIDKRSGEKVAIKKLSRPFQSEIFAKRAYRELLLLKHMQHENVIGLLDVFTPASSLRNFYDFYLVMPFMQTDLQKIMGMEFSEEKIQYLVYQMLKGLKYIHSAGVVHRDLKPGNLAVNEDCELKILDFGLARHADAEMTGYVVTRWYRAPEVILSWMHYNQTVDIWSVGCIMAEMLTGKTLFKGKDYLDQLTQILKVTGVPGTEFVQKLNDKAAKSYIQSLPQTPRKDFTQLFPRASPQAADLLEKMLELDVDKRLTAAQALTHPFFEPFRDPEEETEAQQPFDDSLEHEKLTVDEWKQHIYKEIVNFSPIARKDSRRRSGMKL

[5] = molecular target: Proto-oncogene tyrosine-protein kinase Src (Homo sapiens) (UniProt P12931); assay: Inhibition of human full length SRC expressed in baculovirus assessed as substrate phosphorylation using fluorescence-labelled peptides as substrate at 2 uM after 90 mins by microfluidic peptide phosphorylation assay
Sequence of Proto-oncogene tyrosine-protein kinase Src (Homo sapiens) (P12931 2-536 limits assumed): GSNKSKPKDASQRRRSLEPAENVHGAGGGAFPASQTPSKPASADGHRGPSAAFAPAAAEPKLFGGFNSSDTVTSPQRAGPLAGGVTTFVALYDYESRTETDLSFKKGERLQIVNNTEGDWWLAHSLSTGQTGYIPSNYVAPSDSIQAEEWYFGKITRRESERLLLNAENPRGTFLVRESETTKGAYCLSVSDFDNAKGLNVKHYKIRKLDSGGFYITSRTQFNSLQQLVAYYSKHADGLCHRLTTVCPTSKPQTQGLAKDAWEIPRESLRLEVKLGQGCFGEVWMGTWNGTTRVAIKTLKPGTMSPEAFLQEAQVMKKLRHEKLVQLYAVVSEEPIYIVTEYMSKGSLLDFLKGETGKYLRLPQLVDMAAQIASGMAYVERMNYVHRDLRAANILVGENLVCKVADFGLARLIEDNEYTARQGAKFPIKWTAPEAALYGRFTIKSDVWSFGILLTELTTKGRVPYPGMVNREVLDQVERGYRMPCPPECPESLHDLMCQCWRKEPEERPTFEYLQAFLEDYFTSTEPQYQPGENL

[6] = molecular target: T4, Serine/threonine-protein kinase D2 (Homo sapiens) (UniProt Q9BZL6); assay: Inhibition of human full length PKD2 expressed in baculovirus assessed as substrate phosphorylation using fluorescence-labelled peptides as substrate at 9 uM after 90 mins by microfluidic peptide phosphorylation assay
T4 sequence (whole entry): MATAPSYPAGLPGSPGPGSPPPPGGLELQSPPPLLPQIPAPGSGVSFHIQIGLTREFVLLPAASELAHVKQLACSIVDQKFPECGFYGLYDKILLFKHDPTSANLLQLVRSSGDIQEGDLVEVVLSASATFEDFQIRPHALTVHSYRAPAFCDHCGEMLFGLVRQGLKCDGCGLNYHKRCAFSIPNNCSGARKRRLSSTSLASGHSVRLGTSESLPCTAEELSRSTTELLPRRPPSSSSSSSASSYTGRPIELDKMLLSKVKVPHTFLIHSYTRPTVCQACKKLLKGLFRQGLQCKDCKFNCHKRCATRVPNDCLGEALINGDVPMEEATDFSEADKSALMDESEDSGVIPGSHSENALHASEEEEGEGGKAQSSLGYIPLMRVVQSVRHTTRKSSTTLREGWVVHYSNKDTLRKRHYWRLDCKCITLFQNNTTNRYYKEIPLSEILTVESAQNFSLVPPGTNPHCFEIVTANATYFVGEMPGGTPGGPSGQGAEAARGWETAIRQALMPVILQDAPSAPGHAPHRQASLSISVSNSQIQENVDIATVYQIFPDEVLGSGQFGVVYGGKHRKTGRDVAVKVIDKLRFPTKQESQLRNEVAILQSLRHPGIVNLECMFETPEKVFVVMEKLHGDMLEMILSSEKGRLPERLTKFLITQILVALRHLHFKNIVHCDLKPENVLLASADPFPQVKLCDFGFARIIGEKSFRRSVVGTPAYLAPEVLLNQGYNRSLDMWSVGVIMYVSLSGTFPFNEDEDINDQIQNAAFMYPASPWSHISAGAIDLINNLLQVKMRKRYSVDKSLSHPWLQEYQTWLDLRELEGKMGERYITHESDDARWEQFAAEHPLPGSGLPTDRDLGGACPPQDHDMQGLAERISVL

SMILES: NC1(Cc2ccc(Cl)cc2)CCN(c2ncnc3[nH]ccc23)CC1
- inhibition [1]: 0%

SMILES: Clc1ccc(C2(c3ccc(-c4ncnc5[nH]cnc45)cc3)CCNCC2)cc1
- inhibition [2]: 73.5%
- inhibition [3]: 3.5%
- inhibition [4]: 11%

SMILES: NC1CCN(c2ncnc3[nH]ccc23)CC1
- inhibition [5]: 0%

SMILES: NCC1CN(c2ncnc3[nH]c4cnccc4c23)CCO1 (stereo unspecified)
- inhibition [6]: 68%
